Measurements: ChEMBL document CHEMBL1158821, “Anti-inflammatory sesquiterpene-quinones from the New Zealand sponge Dysidea cf. cristagalli” (J Nat Prod, 2005)
pIC50: −log10 of the molar value.

Key:
[1] = Antiinflammatory activity in PMA-induced human neutrophils assessed as inhibition of superoxide production; assay type: functional, cell-based; conditions: Neutrophil
[2] = Toxicity against human HL60 cells assessed as inhibition of cell proliferation; assay type: cell-based; conditions: HL-60 cells

pIC50 [1]	Compound	pIC50 [2]
5.52	CC(=O)Oc1ccc(O)c(C[C@H]2C(C)=CC[C@H]3C(C)(C)CCC[C@]23C)c1O	6.43
4.96	CC1=CC[C@H]2C(C)(C)CCC[C@]2(C)[C@H]1CC1=C(O)C(=O)C=CC1=O	6.47
